Results reported in the supplement of paper PMC6045584.
± gives the standard deviation of the averaged measurements.

Experiments:
[1] = compound: NC1(c2ccc(-c3nc4ccn5c(=O)[nH]nc5c4cc3-c3ccccc3)cc2)CCC1 [MK2206]; assay: surviving fraction relative to DMSO-only wells; higher = less growth inhibition; conditions: exposure time: 5 days
How it was run: (§1)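 Surviving fraction is CellTiter-Glo luminescence divided by the median of wells given DMSO only. For this, log-phase tumour cell lines went into 384-well plates at 250–500 cells per well and, 24 hours later, into five days of continuous inhibitor exposure at 0.5, 1, 5, 10, 50, 100, 500 and 1000 nM. Lines were screened three times and retained only if replicate Pearson r >0.7 and median Z' >0.3.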

[2] = compound: COc1cc([C@@H]2c3cc4c(cc3[C@@H](O[C@@H]3O[C@@H]5CO[C@@H](C)O[C@H]5[C@H](O)[C@H]3O)[C@H]3COC(=O)[C@H]23)OCO4)cc(OC)c1O [ETOPOSIDE]; assay: as above; conditions: exposure time: 5 days
How it was run: as §1

In the case of CASKI CERVIX, the surviving fraction ([1]; 0.5 nM) is reported as 0.905 ± 0.04, the surviving fraction ([1]; 1 nM) is reported as 0.97 ± 0.055 and the surviving fraction ([1]; 5 nM) is reported as 0.951 ± 0.065. For the same test system, the surviving fraction ([1]; 10 nM) was 0.88 ± 0.011, the surviving fraction ([1]; 50 nM) was 0.736 ± 0.055 and the surviving fraction ([1]; 100 nM) was 0.627 ± 0.039. For the same test system, the surviving fraction ([1]; 500 nM) was 0.44 ± 0.047, the surviving fraction ([1]; 1000 nM) was 0.36 ± 0.022 and the surviving fraction ([2]; 0.5 nM) was 0.904 ± 0.037. It also gave a surviving fraction ([2]; 1 nM) of 0.934 ± 0.061, a surviving fraction ([2]; 5 nM) of 0.99 ± 0.035 and a surviving fraction ([2]; 10 nM) of 0.939 ± 0.014. For the same test system, the surviving fraction ([2]; 50 nM) was 0.876 ± 0.051, the surviving fraction ([2]; 100 nM) was 0.86 ± 0.0087 and the surviving fraction ([2]; 500 nM) was 0.303 ± 0.019. It also gave a surviving fraction ([2]; 1000 nM) of 0.182 ± 0.0059.

CHLA90 AUTONOMIC GANGLIA gave a surviving fraction ([1]; 0.5 nM) of 1.04 ± 0.058, a surviving fraction ([1]; 1 nM) of 1.01 ± 0.037 and a surviving fraction ([1]; 5 nM) of 0.944 ± 0.013. It also gave a surviving fraction ([1]; 10 nM) of 0.929 ± 0.025, a surviving fraction ([1]; 50 nM) of 0.945 ± 0.024 and a surviving fraction ([1]; 100 nM) of 0.997 ± 0.1. For the same test system, the surviving fraction ([1]; 500 nM) was 0.9213 ± 0.0085, the surviving fraction ([1]; 1000 nM) was 0.947 ± 0.053 and the surviving fraction ([2]; 0.5 nM) was 0.964 ± 0.044. It also gave a surviving fraction ([2]; 1 nM) of 0.995 ± 0.043, a surviving fraction ([2]; 5 nM) of 0.978 ± 0.069 and a surviving fraction ([2]; 10 nM) of 0.959 ± 0.042. It also gave a surviving fraction ([2]; 50 nM) of 0.925 ± 0.043, a surviving fraction ([2]; 100 nM) of 0.925 ± 0.043 and a surviving fraction ([2]; 500 nM) of 0.557 ± 0.05. The surviving fraction ([2]; 1000 nM) was 0.484 ± 0.02.

With CME SYNOVIAL the surviving fraction ([1]; 0.5 nM) was 1.25 ± 0.18, the surviving fraction ([1]; 1 nM) was 1.22 ± 0.043 and the surviving fraction ([1]; 5 nM) was 1.35 ± 0.13. The surviving fraction ([1]; 10 nM) was 1.35 ± 0.099, the surviving fraction ([1]; 50 nM) was 1.18 ± 0.085 and the surviving fraction ([1]; 100 nM) was 1.23 ± 0.18. For the same test system, the surviving fraction ([1]; 500 nM) was 1.13 ± 0.099, the surviving fraction ([1]; 1000 nM) was 0.901 ± 0.093 and the surviving fraction ([2]; 0.5 nM) was 1.18 ± 0.13. The surviving fraction ([2]; 1 nM) was 1.09 ± 0.048, the surviving fraction ([2]; 5 nM) was 1.13 ± 0.081 and the surviving fraction ([2]; 10 nM) was 1.13 ± 0.13. It also gave a surviving fraction ([2]; 50 nM) of 0.766 ± 0.015, a surviving fraction ([2]; 100 nM) of 0.364 ± 0.04 and a surviving fraction ([2]; 500 nM) of 0.265 ± 0.0095. The surviving fraction ([2]; 1000 nM) was 0.369 ± 0.023.

COLO320DM LARGE INTESTINE was tested, and the surviving fraction ([1]; 0.5 nM) was 0.985 ± 0.038, the surviving fraction ([1]; 1 nM) was 1.12 ± 0.11 and the surviving fraction ([1]; 5 nM) was 1.11 ± 0.052. It also gave a surviving fraction ([1]; 10 nM) of 1.08 ± 0.066, a surviving fraction ([1]; 50 nM) of 1.03 ± 0.15 and a surviving fraction ([1]; 100 nM) of 0.969 ± 0.059. For the same test system, the surviving fraction ([1]; 500 nM) was 0.707 ± 0.047, the surviving fraction ([1]; 1000 nM) was 0.557 ± 0.056 and the surviving fraction ([2]; 0.5 nM) was 1.16 ± 0.034. The surviving fraction ([2]; 1 nM) was 1.05 ± 0.058, the surviving fraction ([2]; 5 nM) was 1.15 ± 0.044 and the surviving fraction ([2]; 10 nM) was 1.05 ± 0.093. The surviving fraction ([2]; 50 nM) was 1.14 ± 0.046, the surviving fraction ([2]; 100 nM) was 1.05 ± 0.049 and the surviving fraction ([2]; 500 nM) was 1.04 ± 0.03. The surviving fraction ([2]; 1000 nM) was 0.962 ± 0.042.

For DU4475 BREAST, the surviving fraction ([1]; 0.5 nM) was 1.07 ± 0.035, the surviving fraction ([1]; 1 nM) was 1.08 ± 0.094 and the surviving fraction ([1]; 5 nM) was 0.989 ± 0.11. For the same test system, the surviving fraction ([1]; 10 nM) was 1 ± 0.015, the surviving fraction ([1]; 50 nM) was 0.828 ± 0.1 and the surviving fraction ([1]; 100 nM) was 0.784 ± 0.019. For the same test system, the surviving fraction ([1]; 500 nM) was 0.469 ± 0.047, the surviving fraction ([1]; 1000 nM) was 0.444 ± 0.015 and the surviving fraction ([2]; 0.5 nM) was 0.932 ± 0.028. It also gave a surviving fraction ([2]; 1 nM) of 0.97 ± 0.11, a surviving fraction ([2]; 5 nM) of 0.848 ± 0.075 and a surviving fraction ([2]; 10 nM) of 0.7 ± 0.089. For the same test system, the surviving fraction ([2]; 50 nM) was 0.257 ± 0.1, the surviving fraction ([2]; 100 nM) was 0.146 ± 0.037 and the surviving fraction ([2]; 500 nM) was 0.0573 ± 0.011. For the same test system, the surviving fraction ([2]; 1000 nM) was 0.0397 ± 0.0084.

In the case of H23 LUNG, the surviving fraction ([1]; 0.5 nM) is reported as 0.95 ± 0.072, the surviving fraction ([1]; 1 nM) is reported as 1.04 ± 0.015 and the surviving fraction ([1]; 5 nM) is reported as 1.017 ± 0.008. It also gave a surviving fraction ([1]; 10 nM) of 1.03 ± 0.053, a surviving fraction ([1]; 50 nM) of 0.911 ± 0.043 and a surviving fraction ([1]; 100 nM) of 0.883 ± 0.046. The surviving fraction ([1]; 500 nM) was 0.776 ± 0.067, the surviving fraction ([1]; 1000 nM) was 0.6663 ± 0.0061 and the surviving fraction ([2]; 0.5 nM) was 0.988 ± 0.067. For the same test system, the surviving fraction ([2]; 1 nM) was 1.07 ± 0.053, the surviving fraction ([2]; 5 nM) was 1.01 ± 0.033 and the surviving fraction ([2]; 10 nM) was 1.04 ± 0.056. For the same test system, the surviving fraction ([2]; 50 nM) was 1.11 ± 0.03, the surviving fraction ([2]; 100 nM) was 1.07 ± 0.04 and the surviving fraction ([2]; 500 nM) was 0.565 ± 0.019. For the same test system, the surviving fraction ([2]; 1000 nM) was 0.509 ± 0.02.

Work on HCC38 BREAST yielded a surviving fraction ([1]; 0.5 nM) of 1.36 ± 0.11, a surviving fraction ([1]; 1 nM) of 1.33 ± 0.26 and a surviving fraction ([1]; 5 nM) of 1.36 ± 0.073. It also gave a surviving fraction ([1]; 10 nM) of 1.32 ± 0.12, a surviving fraction ([1]; 50 nM) of 1.32 ± 0.23 and a surviving fraction ([1]; 100 nM) of 1.15 ± 0.083. For the same test system, the surviving fraction ([1]; 500 nM) was 1.11 ± 0.048, the surviving fraction ([1]; 1000 nM) was 0.898 ± 0.12 and the surviving fraction ([2]; 0.5 nM) was 1.28 ± 0.31. For the same test system, the surviving fraction ([2]; 1 nM) was 1.19 ± 0.15, the surviving fraction ([2]; 5 nM) was 1.16 ± 0.18 and the surviving fraction ([2]; 10 nM) was 1.17 ± 0.1. It also gave a surviving fraction ([2]; 50 nM) of 1.09 ± 0.054, a surviving fraction ([2]; 100 nM) of 1.21 ± 0.059 and a surviving fraction ([2]; 500 nM) of 0.53 ± 0.067. The surviving fraction ([2]; 1000 nM) was 0.316 ± 0.026.

Test System HCC70 BREAST has a surviving fraction ([1]; 0.5 nM) of 1.03 ± 0.063, a surviving fraction ([1]; 1 nM) of 1.1 ± 0.08 and a surviving fraction ([1]; 5 nM) of 1.13 ± 0.11. For the same test system, the surviving fraction ([1]; 10 nM) was 1.1 ± 0.12, the surviving fraction ([1]; 50 nM) was 0.93 ± 0.076 and the surviving fraction ([1]; 100 nM) was 0.869 ± 0.094. The surviving fraction ([1]; 500 nM) was 0.39 ± 0.033, the surviving fraction ([1]; 1000 nM) was 0.312 ± 0.014 and the surviving fraction ([2]; 0.5 nM) was 1.05 ± 0.078. It also gave a surviving fraction ([2]; 1 nM) of 0.995 ± 0.053, a surviving fraction ([2]; 5 nM) of 1.08 ± 0.044 and a surviving fraction ([2]; 10 nM) of 1.09 ± 0.1. For the same test system, the surviving fraction ([2]; 50 nM) was 0.991 ± 0.13, the surviving fraction ([2]; 100 nM) was 1.09 ± 0.09 and the surviving fraction ([2]; 500 nM) was 0.785 ± 0.077. It also gave a surviving fraction ([2]; 1000 nM) of 0.578 ± 0.016.

HCC78 LUNG was tested, and the surviving fraction ([1]; 0.5 nM) was 0.785 ± 0.17, the surviving fraction ([1]; 1 nM) was 0.975 ± 0.05 and the surviving fraction ([1]; 5 nM) was 1.12 ± 0.2. The surviving fraction ([1]; 10 nM) was 0.998 ± 0.21, the surviving fraction ([1]; 50 nM) was 0.848 ± 0.073 and the surviving fraction ([1]; 100 nM) was 0.529 ± 0.13. For the same test system, the surviving fraction ([1]; 500 nM) was 0.33 ± 0.14, the surviving fraction ([1]; 1000 nM) was 0.192 ± 0.076 and the surviving fraction ([2]; 0.5 nM) was 0.952 ± 0.064. For the same test system, the surviving fraction ([2]; 1 nM) was 0.863 ± 0.27, the surviving fraction ([2]; 5 nM) was 1 ± 0.082 and the surviving fraction ([2]; 10 nM) was 0.925 ± 0.16. The surviving fraction ([2]; 50 nM) was 0.841 ± 0.11, the surviving fraction ([2]; 100 nM) was 0.649 ± 0.099 and the surviving fraction ([2]; 500 nM) was 0.0883 ± 0.027. It also gave a surviving fraction ([2]; 1000 nM) of 0.089 ± 0.024.

HCC202 BREAST showed a surviving fraction ([1]; 0.5 nM) of 1.07 ± 0.091, a surviving fraction ([1]; 1 nM) of 1.08 ± 0.12 and a surviving fraction ([1]; 5 nM) of 1.2 ± 0.16. For the same test system, the surviving fraction ([1]; 10 nM) was 1.2 ± 0.074, the surviving fraction ([1]; 50 nM) was 0.699 ± 0.37 and the surviving fraction ([1]; 100 nM) was 0.688 ± 0.035. It also gave a surviving fraction ([1]; 500 nM) of 0.238 ± 0.012, a surviving fraction ([1]; 1000 nM) of 0.238 ± 0.0064 and a surviving fraction ([2]; 0.5 nM) of 1.08 ± 0.35. It also gave a surviving fraction ([2]; 1 nM) of 1.11 ± 0.12, a surviving fraction ([2]; 5 nM) of 1.17 ± 0.066 and a surviving fraction ([2]; 10 nM) of 0.994 ± 0.18. The surviving fraction ([2]; 50 nM) was 1.14 ± 0.18, the surviving fraction ([2]; 100 nM) was 1.14 ± 0.22 and the surviving fraction ([2]; 500 nM) was 0.84 ± 0.31. For the same test system, the surviving fraction ([2]; 1000 nM) was 0.724 ± 0.13.
